In patent publication US9771358B2, “Dihydropyrimidine compounds and their application in pharmaceuticals” (SUNSHINE LAKE PHARMA CO., LTD., priority 2014, dated 2017):
Read-outs that look alike come from different tables or passages of the source.

Tests used:
[1] = Stability in liver microsome, dog; format: in vitro ADME; conditions: liver microsomes; dog liver microsome 0.1 mg/mL, compound 1 μM, NADPH 2 mM
Procedure: (§1) Then two parallel samples were prepared. After a 10 minutes preincubation at 37° C., 15 μL of NADPH solution (8 mM) was added according to the point-in-time. The final concentration of the text compound was 1 μM, the concentration of liver microsome was 0.1 mg/mL, the final concentration of NADPH was 2 mM. The incubations were last for 0, 15, 30, 60 min respectively, and then 150 μL of acetonitrile (include interior label) was added to the mixture system. After dilution with acetonitrile, the samples were centrifuged for 5 minutes in 4000 rpm. The supernatant liquid was collected for LC-MS/MS analysis.

[2] = PK of test compounds in beagle; format: in vivo, beagle dog; conditions: for Cmax / Tmax / clearance / half-life / AUC(0-inf) / AUC(0-t) / Vd: dog, plasma; for AUC(0-inf): AUC in 0 hour to infinite time; for Vd: read-out: Vss; for F: absolute bioavailability
Procedure: The test compounds were administrated to beagle dog by gavage in dose of 2.5 mg/kg or 5 mg/kg, or by intravenous injection in dose of 1 mg/kg or 2 mg/kg. Blood sample was collected at 0.083, 0.25, 0.5, 1, 2, 4, 6, 8 and 24 hours from vein after administration into anticoagulation tubes with EDTA-K2. The test compounds were extracted from plasma samples and chromatographed on a tandem mass spectrometer. Quantitation was performed using multiple reaction monitoring (MRM). Pharmacokinetic parameters were calculated using WinNonlin 6.3 software with non compartment model.

[3] = Stability in liver microsome, human; format: in vitro ADME; conditions: liver microsomes; human liver microsome 0.1 mg/mL, compound 1 μM, NADPH 2 mM
Procedure: as §1

[4] = Stability in liver microsome, mouse; format: in vitro ADME; conditions: liver microsomes; mouse liver microsome 0.1 mg/mL, compound 1 μM, NADPH 2 mM
Procedure: as §1

[5] = Stability in liver microsome, monkey; format: in vitro ADME; conditions: liver microsomes; monkey liver microsome 0.1 mg/mL, compound 1 μM, NADPH 2 mM
Procedure: as §1

HBV = test: In-vitro anti-HBV activity in stable HBV-producing cell line (HepG2.2.15), HBV DNA by qPCR; format: cell-based; conditions: Hepatitis B virus
Procedure: HBV DNA contents in cell culture fluid were detected by the qPCR-based assay and 50% effective concentration (EC50) values of the compounds against HBV were calculated. Specific procedures are as follows:
HepG2.2.15 cells were seeded into each well of 96-well plates, 40,000 cells per well. Cells were treated with cell culture medium containing compounds with different concentrations for 24 hours after cell seeding. The final concentration of each compound was 16.4 μM in each well and each compound was diluted to desired concentration using 3-fold gradient dilution protocol, 9 diluted points in duplicate. The culture mediums containing the compounds were refreshed on day 4 post cell seeding. Culture media were collected from the HepG2.2.15 plates on day 7 post cell seeding followed by HBV DNA extraction.
HBV DNA extraction: The HBV DNA extraction was performed using QIAamp 96 DNA Blood Kit (QIAGEN 51161).
PCR for quantification: PCR mix was prepared according to PCR system. PCR mix was dispensed to 96-well optical reaction plates (special for quantification). The standard diluted proportionally was added. Then the sample was added; The plates were sealed with optical adhesive film; PCR system was performed according to programs.
Percentage of HBV inhibition of DNA replication by compound was calculated using the following equation: % Inh.=[1-HBV DNA quantity of sample/HBV DNA quantity of DMSO control]×100.
Calculating EC50 value of compounds to HBV replication: the EC50 values were calculated based on “four-parameter logistic equation” and using GraphPad Prism 5 analysis software.

[6] = iv, 1 mg/kg, iv, 1 mg/kg, AUC in 0-24 hours, read-out: AUClast
[7] = po, 2.5 mg/kg, po, 2.5 mg/kg value multiplied by 2, read-out: AUClast ×2 (calculated by dosage)
[8] = po, 2.5 mg/kg, po, 2.5 mg/kg, AUC in 0-24 hours, read-out: AUClast
[9] = 168 h, HepG2.2.15 cells, HBV DNA in culture fluid, day 7, top concentration 16.4 μM

SMILES | CLint scaled at 1 μM [1] [mL/min/kg] | half-life at 1 μM [1] [h] | Cmax ([2]; iv, 1 mg/kg) [ng/mL] | Tmax ([2]; iv, 1 mg/kg) [h] | clearance ([2]; iv, 1 mg/kg) [mL/min/kg] | half-life ([2]; iv, 1 mg/kg) [h] | AUC(0-inf) ([2]; iv, 1 mg/kg) [ng·h/mL] | AUC(0-t) [2, 6] [ng·h/mL] | Vd ([2]; iv, 1 mg/kg) [L/kg] | Cmax ([2]; po, 2.5 mg/kg) [ng/mL] | Tmax ([2]; po, 2.5 mg/kg) [h] | half-life ([2]; po, 2.5 mg/kg) [h] | AUC(0-inf) ([2]; po, 2.5 mg/kg) [ng·h/mL] | AUC(0-t) [2, 7] [ng·h/mL] | AUC(0-t) [2, 8] [ng·h/mL] | F ([2]; po, 2.5 mg/kg) [%] | CLint scaled at 1 μM [3] [mL/min/kg] | half-life at 1 μM [3] [h] | CLint scaled at 1 μM [4] [mL/min/kg] | EC50 (HBV; [9]) [µM] | also measured
CCOC(=O)C1=C(CN2CCO[C@H](CCC(=O)O)C2)NC(c2nccs2)=N[C@H]1c1ccc(Cl)cc1Cl [Example 12, 3-((R)-4-(((R)-6-(2,4-dichlorophenyl)-5-(ethoxycarbonyl)-2-(thiazol-2-yl)-3,6-dihydropyrimidin-4-yl)methyl)morpholin-2-yl)propanoic acid] | 17.5 | 3.28 | 2230 | 0.083 | 2.12 | 6.2 | 7970 | 7570 | 0.832 | 2660 | 0.5 | 9.07 | 16800 | 30000 | 15000 | 84.48 | 18.6 | 1.56 | 604 | 0.026 | half-life at 1 μM [4]: 0.15 h; CLint scaled at 1 μM [5]: 122 mL/min/kg; half-life at 1 μM [5]: 0.277 h
COC(=O)C1=C(CN2CCO[C@H](CCC(=O)O)C2)NC(c2nccs2)=N[C@H]1c1ccc(F)cc1Br [Example 11, 3-((R)-4-(((R)-6-(2-Bromo-4-fluorophenyl)-5-(methoxycarbonyl)-2-(thiazol-2-yl)-3,6-dihydropyrimidin-4-yl)methyl)morpholin-2-yl)propanoic acid] | 10.1 | 5.72 | 3400 | 0.139 | 1.59 | 4.99 | 10900 | 10500 | 0.545 | 4310 | 0.75 | 4.92 | 24400 | 47400 | 23700 | 89.66 | 6.93 | 4.18 | 86.3 | 0.035 | half-life at 1 μM [4]: 1.05 h; CLint scaled at 1 μM [5]: 14.4 mL/min/kg; half-life at 1 μM [5]: 2.34 h
CCOC(=O)C1=C(CN2CCO[C@H](CCC(=O)O)C2)NC(c2nccs2)=N[C@H]1c1ccc(F)cc1Cl [Example 9, 3-((R)-4-(((R)-6-(2-Chloro-4-fluorophenyl)-5-(ethoxycarbonyl)-2-(thiazol-2-yl)-3,6-dihydropyrimidin-4-yl)methyl)morpholin-2-yl)propanoic acid] | 19.4 | 2.96 | 2570 | 0.083 | 1.51 | 6.59 | 11300 | 10600 | 0.63 | 4360 | 0.5 | 4.62 | 24800 | 48600 | 24300 | 87.91 | 11.4 | 2.53 | 281 | 0.048 | half-life at 1 μM [4]: 0.324 h; CLint scaled at 1 μM [5]: 75.6 mL/min/kg; half-life at 1 μM [5]: 0.447 h; EC50 (HBV; HepG2.2.15, isomers of compound of formular (II)): 0.048 µM
CCOC(=O)C1=C(CN2CCO[C@H](CCC(=O)O)C2)NC(c2nccs2)=N[C@@H]1c1ccc(F)cc1Br [Example 35, 3-((R)-4-(((S)-6-(2-Bromo-4-fluorophenyl)-5-(ethoxycarbonyl)-2-(thiazol-2-yl)-3,6-dihydropyrimidin-4-yl)methyl)morpholin-2-yl)propanoic acid] | – | – | – | – | – | – | – | – | – | – | – | – | – | – | – | – | – | – | – | > 12.2 | –
COC(=O)C1=C(CN2CCO[C@@H](CCC(=O)O)C2)NC(c2nccs2)=N[C@H]1c1ccc(F)cc1Br [Example 22, 3-((S)-4-(((R)-6-(2-Bromo-4-fluorophenyl)-5-(methoxycarbonyl)-2-(thiazol-2-yl)-3,6-dihydropyrimidin-4-yl)methyl)morpholin-2-yl)propanoic acid] | – | – | – | – | – | – | – | – | – | – | – | – | – | – | – | – | – | – | – | 0.089 | –
CCOC(=O)C1=C(CN2CCO[C@H](C)[C@H]2CCC(=O)O)NC(c2nccs2)=N[C@H]1c1ccc(F)cc1Br [Example 5, 3-((2R,3R)-4-(((R)-6-(2-Bromo-4-fluorophenyl)-5-(ethoxycarbonyl)-2-(thiazol-2-yl)-3,6-dihydropyrimidin-4-yl)methyl)-2-methylmorpholin-3-yl)propanoic acid] | – | – | – | – | – | – | – | – | – | – | – | – | – | – | – | – | – | – | – | 0.306 | –
